Experimental data: paper PMC4105021 (ChemMedChem, 2014)

Legend:
[1] = test system: human peripheral blood mononuclear cells; format: cell-based; details: human PBMCs and whole human blood, Fig. 6
[2] = test system: human TLR2, TLR3, TLR4, TLR5, TLR7, TLR9, TLR10, Nod1 and Nod2; assay: counter-screen in reporter cell lines specific for other human TLRs and Nods; format: cell-based

Compound	cytokine/chemokine induction profile [1]	specificity in counter-screens [2]
CCCCCc1cc2ccccc2nc1N [Compound 14b, 3-pentylquinolin-2-amine]	induction of a specific set of chemokines and proinflammatory cytokines, including interleukins 12 and 18	
CCCCNc1cc2ccccc2nc1N [Compound 9, N^3-butylquinoline-2,3-diamine]		specific for human TLR8
CCCCOc1cc2ccccc2nc1N [Compound 6, 3-butoxyquinolin-2-amine]		specific for human TLR8
CCCCSc1cc2ccccc2nc1N [Compound 12, 3-(butylthio)quinolin-2-amine]		specific for human TLR8
